Data from patent publication US20080300298A1, “Honokiol Derivates For the Treatment of Proliferative Disorders” (priority 2005, published 2008).
Converted amounts (≈) assume the structure as drawn. Read-outs that look alike come from different tables or passages of the source.

Experiments:
[1] = system: SHSY5Y and SHEP neuroblastoma cells; experiment: cancer cell viability, TSA in combination with honokiol; format: cell-based; details: 0-1 uM TSA alone or in combination with honokiol
Description: In FIG. 43, the effects on cancer cell viability after treatment with trichostatin A (TSA), a histone deacetylase inhibitor, in combination with honokiol were examined.

CH12.hCD40-LMP1 B cells = experiment: CD40/LMP1 mediated cytokine and IgM production; format: cell-based, mouse
Experimental: IL-6 and TNF-a levels in culture supernatants were determined by ELISA. Subsequent IgM production by CH12.LX cells is also affected, as determined by assaying IgM secretion by CH12.hCD40-LMP1 cells. IgM secretion was measured by hemolytic plaque assay, as previously described (GA Bishop. 1991. J. Immunol. 147(4): 1107-1114).

H1299 cells = experiment: Invasion assay (Matrigel); format: cell-based, human
Experimental: (A) RAW 264.7 cells (1×10^4) were plated overnight, pretreated with 5 mM honokiol for 12 h, and then treated with 5 nM RANKL. At 4 and 5 days later, cells were stained for TRAP and evaluated for osteoclastogenesis. Photographs were taken after 5 days of incubation with RANKL. (B) The numbers of TRAP-positive multinucleated osteoclasts (>3 nuclei) per well were counted. (C) H1299 cells (2.5×10^4) were seeded into the upper wells of a Matrigel invasion chamber overnight in the absence of serum, pretreated with […] honokiol for 12 h, treated with 1 nM TNF for 24 h in the presence of 1% serum, and then subjected to invasion assay. The value for no honokiol and no TNF was set to 1.0.
Invasion assay. The membrane invasion culture system was used to assess cell invasion because invasion through the extracellular matrix is a crucial step in tumor metastasis. […] The cells that invaded through the Matrigel (i.e., those that migrated to the lower chamber during incubation) were stained with […] calcein-AM (Molecular Probes) in PBS for 30 min at 37° C. and scanned for fluorescence with a Victor 3 multi-plate reader (Perkin Elmer Life and Analytical Sciences, Boston, Mass.); fluorescent cells were counted. […]

JNK in CH12.LX cells = experiment: JNK phosphorylation (Western blotting); format: cell-based, mouse; details: CH12.LX cells transfected with hCD40-LMP1
Description: The cells were pelleted by centrifugation, lysed and analyzed by SDS PAGE and Western blotting. Peroxidase-labeled antibodies were visualized on Western blots using a chemilluminescent detection reagent to assay for JNK phosphorylation.

[2] = system: human multiple myeloma (MM) cell lines; experiment: colorimetric (WST-8) growth assay; format: cell-based; details: for IC50: Homo sapiens
Description: Cells: Dexamethasone (Dex)-sensitive MM.1S (wild-type p53) and Dex-resistant MM.1R, RPMI 8226-Dox40 (doxorubicin resistant) and RPMI 8226-LR5 (melphalan resistant) human multiple myeloma (MM) cell lines were used. RPMI-8226 and U266 cells were obtained from the American Type Culture Collection (Rockville, Md.). SU-DHL-4 cells were also utilized. Fresh peripheral blood mononuclear cells (PBMNCs) were obtained from healthy subjects after informed consent. The PBMNC were separated from heparinized peripheral blood by Ficoll-Hipaque density sedimentation. BM specimens were acquired from patients with MM after obtaining informed consent and mononuclear cells were separated by Ficoll-Hipaque density sedimentation. Cells were cultured at 37° C. in RPMI 1640 containing 10% fetal bovine serum (FBS; Sigma, St Louis, Mo.), […], 100 U/mL penicillin, and 100 μg/mL streptomycin (Gibco, Grand Island, N.Y.).
Reagents: Honokiol (HNK; Calbiochem, San Diego, Calif.) was dissolved in ethanol at 20 mg/ml stock solution. Recombinant human interleukin-6 (IL-6), vascular endothelial growth factor (VEGF) and insulin-like growth factor-1 (IGF-1) (R&D Systems, Minneapolis, Minn.) were reconstituted with sterile PBS containing 0.1% FBS (IL-6 and VEGF) and 10 mM of acetic acid containing 0.1% FBS (IGF-1), respectively. Pan-caspase inhibitor z-VAD-fmk (Bachem, Bubendorf, Switzerland) was dissolved in methanol. These reagents were stored at −20° C. and diluted by media just before the use. Doxorubicin (Sigma, St Louis, Mo.) was dissolved in sterile water at the concentration of 3.45 mM. […] Absorbance readings at a wavelength of 450 nm were taken on a spectrophotometer (Molecular Devices Corp., Sunnyvale, Calif.).
HNK inhibits growth of MM cell lines. To identify the therapeutic potential of HNK, MM cell lines and normal PBMNCs were cultured at indicated concentration with HNK for 48 h, and growth was determined by calorimetric assays. […] FIGS. 6A and B show growth inhibition in MM cell lines by HNK as assessed by calorimetric assay after 48 h-culture. […]

C=CCc1ccc(O)c(-c2ccc(O)c(CC=C)c2)c1 [HNK, Honokiol]
percent of viable cells, combination with TSA compared with TSA alone [1]: significant decrease in the percent of viable cells
CD40/LMP1 mediated IL-6, TNF-a production (CH12.hCD40-LMP1 B cells; CH12.LX cells transfected with hCD40-LMP1, not IL-10 or IL-4): inhibits CD40/LMP1 mediated IL-6, TNF-a production in a dose-dependent manner
IgM secretion (hemolytic plaque assay) (CH12.hCD40-LMP1 B cells; CH12.hCD40-LMP1 cells): inhibited IgM production
TNF-induced tumor cell invasion (H1299 cells; H1299, 10 mM (printed) honokiol 12 h, 1 nM TNF 24 h): suppressed this activity
invasion activity of honokiol alone (H1299 cells; H1299, no TNF): had no invasion activity
JNK phosphorylation (JNK in CH12.LX cells): inhibited by honokiol in a dose dependent manner
IC50 ([2]; drug sensitive RPM18226, U266 and MM.1S cells, 48 h, read-out: fifty percent inhibition (IC50) at 48 h): 8 to 10 µg/mL (≈ 30 to 37.5 µM)
IC50 ([2]; including Melphalan-, Doxorubicin- and Dex-resistant cell lines, read-out: IC50 of growth inhibition of MM cell lines): < 10 µg/mL
growth of drug resistant cell lines ([2]; RPM18226-Dox40, RPM18226-LR5 and MM.1R cells, 48 h): IC50 values similar to parental drug-sensitive cell lines
